# Measurements from patent US20110059869A1, “Method for Increasing Enzymatic Reactivity” (RIKEN, priority 2008, published 2011).
# What was measured:
# Format in all cases: biochemical
# restriction enzyme PstI [1] = experiment: PstI cleavage reaction in solution (DNA fragment III); conditions: normal reaction solution, with vs without 0.6 M trehalose; three hours
# Description: Biotin-labeled DNA fragment III (Seq. ID No. 6, Scheme 4) was cleaved at the restriction enzyme PstI site in solution and the 104 by DNA fragment that was released was examined. Two forms of reaction solution (DNA fragment III 500 ng, 1× PSTI buffer, 1× BSA, restriction enzyme 40 units) were prepared: a total of 50 uL trehalose (+) reaction solution to which D(+)-trehalose was added to a final concentration of 0.6 M, and a total of 50 uL trehalose (−) reaction solution, to which no trehalose was added. The reaction solutions were reacted for 3 hours at 37° C., a proteinase K reaction was conducted, phenol chloroform treatment was carried out, and precipitation from ethanol was conducted. The precipitate of the DNA fragment obtained was dissolved in 1× TE (pH 7.5) and analyzed with Bioanalyzer DNA 1000 assay (Agilent Technologies).
# restriction enzyme PstI [2] = experiment: PstI cleavage of DNA fragments I, II, III in a uniform liquid phase system; conditions: 0.6 M trehalose present or not, three hours at 37° C.
# Description: In the same manner as in 7 above, the three biotin-labeled DNA fractions I, II, and III (Seq. ID Nos. 4 to 6) were each cleaved at the restriction enzyme PstI site and the DNA fragments of various sizes that were released were detected. Two types of reaction solution (1× PstI buffer, 1× BSA, restriction enzyme 40 units) were prepared: a trehalose (+) system with a final D(+)-trehalose concentration of 0.6 M, and a trehalose (−) system to which no trehalose was added. Each of the reaction solutions was admixed and reacted for three hours at 37° C. Cleavage was conducted with restriction enzyme. The DNA fragments of various sizes that were released were reacted with proteinase K, treated with phenol chloroform, and precipitated from ethanol. The precipitate of DNA fragments obtained was dissolved in 1× TE (pH 7.5) and analyzed with Bioanalyzer DNA 1000 assay (Agilent Technologies) (FIGS. 15 and 16).
# [3] = test system: ligation enzymatic reaction solution of a SOLID system 2.0; experiment: Sequencing reaction in a SOLID sequencing system; conditions: 0.3 M trehalose vs none
# Description: D(+)-trehalose was added to the ligation enzymatic reaction solution of a SOLID system 2.0 and the effects were measured. The experiment was conducted at a final D(+)-trehalose concentration of 0.3 M. The noise to signal ratio (N/S ratio) of each cycle was employed for comparison. The N/S ratio was obtained by dividing the second brightest fluorescence intensity by the brightest fluorescence intensity.
# The D(+)-trehalose employed was D(+)-trehalose dihydrate (201-02253 reagent grade) (Wako). A SOLiD™ fragment library sequencing kit v2 (4400466) was employed for sequencing with the SOLID system (Applied Biosystems). The sample employed as a SOLiD™ DH10B fragment library control kit (4391889).
# Probe Mixes A and B and bridge probe, prepared with the reagents contained in a SOLiD™ fragment library sequence kit v2 (4400466) and adjusted to a D(+)-trehalose (90208 BioChemika, 99.5% (HPLC)) (Fluka) concentration of 1.7 M, were added to each sequence primer in the quantities indicated below.
# The operation was conducted according to the manufacturer's protocol following addition.
# [4] = test system: XhoI, PstI, HindIII, and NotI; experiment: Various restriction enzyme reactions on biotin-labeled cDNA immobilized on streptavidin beads; conditions: 0.6 M trehalose vs trehalose (−); 3 hours at 37° C.; all enzymes
# Description: Streptavidin beads on which were adsorbed double-stranded cDNA were washed with various restriction enzyme buffers. The restriction enzymes employed were XhoI, PstI, HindIII, and NotI. Two reaction solutions (various 1× buffers, 1× BSA based on enzyme, restriction enzyme 40 units) were prepared: a trehalose (+) system to which D(+)-trehalose was added to a final concentration of 0.6 M, and a trehalose (−) system, to which no trehalose was added. The reaction solutions were admixed to beads that had been washed and the mixtures were reacted for 3 hours at 37° C. A magnetic stand was used to recover (aggregate) the beads, cleavage was conducted with restriction enzyme, and the supernatant containing the cDNA that had been released was measured with a liquid scintillation counter. The cDNA yield and restriction enzyme efficiency were calculated from the RI count values (Scheme 2).
smiles,measurement,setting,value
"OC[C@H]1O[C@H](O[C@H]2O[C@H](CO)[C@@H](O)[C@H](O)[C@H]2O)[C@H](O)[C@@H](O)[C@@H]1O [trehalose, D(+)-trehalose]",yield of released DNA fragment,restriction enzyme PstI [1],the same yield
same,quantity of the released DNA fragments recovered,restriction enzyme PstI [2],no change
same,noise to signal ratio (N/S ratio) with each cycle,[3],reduced the rise in noise
same,quantity of released cDNA recovered,[4],higher quantity was recovered
